For one assay, the target named is stromelysin (Homo sapiens, UniProt P08254). Put plainly: Assay of stromelysin inhibition activity (fluorogenic coumarin peptide substrate). The format is biochemical. The settings on record: trypsin-activated stromelysin 2 nM, H-150 buffer pH 7.4, room temperature; read-out: Ki(app). In outline: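 Human stromelysin trypsin-activated, then used at 2 nM in HEPES/NaCl/CaCl2 buffer pH 7.4 at room temperature with coumarin peptide substrate. Initial hydrolysis rate followed by fluorescence (ex 328/em 393 nm); inhibitor added stepwise to 30-70% inhibition, Ki derived assuming simple competitive inhibition with substrate far below Km.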

Assay [1] deals with bovine cartilage explants. The assay can be described thus: Bovine cartilage explant assay (35S-GAG release, rhIL-1α stimulated). The settings on record: Bos taurus, rhIL-1α 5 ng/mL, 3-4 days culture, read-out: % inhibition (concentration [μM]) of cartilage degradation. The format is cell-based. From the text: A tissue culture assay was used to measure the ability of the compounds of the present invention to slow the degradation of the extracellular matrix by metalloproteinases. This assay measured the amount of ^35 S-glycosaminoglycan (^35 S-GAG) released from labeled bovine cartilage explants.
Knee joints from a 1 to 3 week old calf were obtained immediately after sacrifice from the Abattoir and then transported on ice. The intact joints were washed well with tap water and soaked in 50% (v/v) Povidine iodine solution, obtained from Burre National, Inc., Baltimore, Md. All subsequent steps were performed in a laminar flow tissue culture hood using standard sterile technique. The joint was immobilized in a shank holder and the joint capsule was cut open to expose the articular cartilage. Cartilage explant plugs, approximately 15 mg wet weight, were removed from the flat articulating surfaces in the lower-most region of the knee joint using a sterile steel cork-borer and collected in a 250 mL roller bottle containing about 100 mL fresh Delbecco's minimum essential medium (DMEM), obtained from Gibco BRC, Life Technologies, Gaithersburg, Md., containing 4.5 g/l (D)-glucose and (L)-glutamine, without sodium pyruvate. The fresh media also contained enough Hepes buffer and sodium bicarbonate such that the pH was about 7.4. The media was then further supplemented just before use with 100 units Penicillin, 100 μg Streptomycin, and 50 μg (L)-ascorbic acid per mL of medium.
Once collected, the explant plugs were washed four times with 50 mL fresh DMEM. The plugs were then placed in the incubator for a minimum of 1 hour to equilibrate, before proceeding to make disks from the articulating surface of each plug. A 1 mm thick disk was sliced from individual plugs from the end that was the articulating surface of the joint. The plug was held steady in the sterile template (4 mm diameter×1.5 mm deep) using sterile forceps. A scalpel blade was used to carefully slice off the disk. Only the superficial articulating surface responded well in culture.
Individual disks obtained were transferred to a tissue culture flask containing about 100 mL fresh media. The flask containing the disks was placed in an incubator at 37° C. (with 5% CO2, 95% air) and allowed to equilibrate overnight and at least one additional day before labeling. When ready to label, the old media was replaced with 50 mL fresh media containing about 500 μCi ^35 S-Sodium Sulfate. The plugs were labeled in bulk for about 48 hours. The next morning, the "hot" media was removed and replaced with fresh "cold" media. The disks were again allowed to equilibrate overnight before being used for actual experiments.
The media in which the disks were stored was changed immediately prior to performing the assay. The disks were then returned to the incubator until the test media and the two control media had been prepared. The test media consisted of the desired concentration of a compound being tested for its ability to inhibit extracellular matrix degradation and concomitant recombinant human Interleukin rhIL-1α (5 ng/mL) in fresh DMEM solution. The control media were identical to the test media, except that the first control media lacked rhIL-1α and the second control media lacked the test compound. 250 μL of each of the test and control media were transferred to separate 96-well TC plates. Flamed forceps were used to transfer a disk from the incubator to each 96-well TC plates that had been filled with either the test media or one of the two control media.
The TC plates were then placed in the incubator and cultured for 3-4 days (initial incubation with rhIL-1α alpha takes at least 3 days to stimulate endogenous metalloproteinases). A 50 μL aliquot of media from each TC plate was saved and counted. The rest of the media was removed with a suction device.
The cartilage disks from each TC plate were also saved for counting. […]

Values joined by “and” are separate entries in the source; they are usually repeats but may differ in a detail not shown here. Equal values may be shown once.

stromelysin, sequence (P08254 100-477): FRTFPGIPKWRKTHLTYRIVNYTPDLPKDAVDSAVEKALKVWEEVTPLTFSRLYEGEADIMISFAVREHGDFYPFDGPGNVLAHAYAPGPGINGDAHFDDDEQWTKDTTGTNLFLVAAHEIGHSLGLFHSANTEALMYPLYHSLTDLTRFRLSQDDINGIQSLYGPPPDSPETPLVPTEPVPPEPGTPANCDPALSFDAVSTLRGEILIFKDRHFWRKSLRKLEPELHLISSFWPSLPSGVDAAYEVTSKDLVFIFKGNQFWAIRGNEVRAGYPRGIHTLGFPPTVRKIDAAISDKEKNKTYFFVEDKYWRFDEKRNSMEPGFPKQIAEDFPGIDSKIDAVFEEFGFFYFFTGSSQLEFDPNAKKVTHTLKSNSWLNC

On to `O=C(N[C@@H](Cc1ccc(OCc2ccccc2)cc1)C(=O)N[C@H](C(=O)Nc1n[nH]c(=S)s1)c1ccccc1)OCc1ccccc1`, for which the Ki on stromelysin was 39 nM and 64 nM. In addition, in assay [1] (25 μM compound), the inhibition at 25 µM worked out at 20%.
With `CC(C)C[C@H](NC(=O)[C@H](Cc1ccccc1)NC(=O)OCc1ccccc1)C(=O)Nc1n[nH]c(=S)s1` [5-(N-benzyloxycarbonyl-phenylalanyl-leucylamino)-1,3,4-thiadiazole-2-thione], at stromelysin, the Ki is 169 nM. For the same compound, the inhibition at 50 µM in assay [1] (50 μM compound) is 33%.
`CC(C)[C@H](NC(=O)[C@H](Cc1ccccc1)NC(=O)OCc1ccccc1)C(=O)Nc1n[nH]c(=S)s1` [5-(N-benzyloxycarbonyl-phenylalanyl-valylamino)-1,3,4-thiadiazole-2-thione]: the Ki on stromelysin was 279 nM. The inhibition at 10 µM in assay [1] (10 μM compound) was determined as 40%.

These data come from patent US5677282A (Proscript, Inc., priority 1995, dated 1997).
